Reference: patent publication US20180125816A1, “SAROGLITAZAR MAGNESIUM FOR THE TREATMENT OF CHYLOMICRONEMIA SYNDROME” (CADILA HEALTHCARE LIMITED, priority 2015, published 2018)

Assays:
Zucker fa/fa rats [1] = test: Fatty tolerance test with 13C-palmitate/corn oil after 14 days repeated dosing: hyper-chylomicronemia and chylomicron dynamics; format: in vivo, rat; details: for 13C Palmitate / Palmitate total: adipose tissue
Protocol: In this study, the effect of Compound (1) on hyper-chylomicronemia and chylomicron dynamics in Zucker fa/fa rats after 14 days repeated dose administration was evaluated.
Zucker (fa/fa) fatty rat of 7-8 weeks of age were purchased from Charles River Laboratory and single-housed under a pathogen free environment with constant room temperature (20-22° C.) and relative humidity (40-50%) and a 6:00 pm-6:00 am dark-light cycle. Rats were provided with free access to food (Lab Diet 5L0D, an irradiated regular rodent diet containing 23% of protein and 4.5% of fat) and water. Initial body weight and body composition (using a NMR analyzer) were measured 6 days post-arrival. The rats were then randomly divided into four dosing groups based BW and fat mass as below—
Dosing was begun at 9-10 weeks of age, once daily (8-10 am) by oral gavage for 14 days. On the day-14 of dosing, a final body composition (after dosing) was measured. On day-15, all animals were given a fatty tolerance test (FTT) after being fasted overnight (15-16 hours), followed by blood and tissue collection.
Fatty Tolerance Test Procedure (FTT): • 1. Following an overnight fast, rats were orally gavaged with a mixture of ^13C-Palmitic Acid (1 and corn oil (1 g of^13C-P dissolved in 5 ml of corn oil) at 5 ml/kg·bw. • 2. Blood samples were collected via tail vein bleeding using 3×300 ul EDTA tubes at the following time points:
0 hour (initial), 1 hour, 2 hour, 3 hour, 4 hour, 5 hour, 6 hour, 8 hour
After the 8 hour bleeding, rats were knocked down in a drop jar using isoflurane. Once sedated, the rats were hooked up to a Midmark Matrx Anesthesia isoflurane machine that dispensed isoflurane vapor at […] with an oxygen flow rate of 1 L/min. Organs and tissues were dissected and frozen immediately in liquid nitrogen and stored at −80° C. LCMS and GCMS were used to assess the incorporation of ^13C lipids into plasma and tissue lipids (n=5 for tissue metabolomics studies).

Zucker fa/fa rats [2] = test: Severe hypertriglyceridemia induced by Triton WR-1339 (inhibition of LPL) in Zucker fa/fa rats, serum triglycerides; format: in vivo, rat; details: for % Change in AUC-TG vs Vehicle Control: AUC 0-48 hr; for reduction in serum triglycerides (TG): 0-hr time point, after repeat dose treatment
Protocol: The obese Zucker (fatty) rat is one of the oldest models of NIDDM, resembling human type II diabetes, i.e. diabetes associated with obesity. It is characterized by hyperphagia and associated with mild hyperglycaemia, insulin resistance, mild glucose intolerance, hyperlipidaemia specially hypertriglyceridemia. When the non-ionic detergent Triton WR-1339 is injected into Zucker fa/fa rats, there is a progressive accumulation of triacylglycerols in the plasma/serum (Friedman & Byers, 1953; Otway & Robinson, 1967). […] So the nonionic detergent, Triton WR-1339 (Triton), has commonly been used to inhibit LPL for this purpose to produce the condition of severe hypertriglyceridemia similar to familial chylomicronemia syndrome and Type V hyperlipoproteinemia.
In this study 20 male and 14 female Zucker fa/fa rats of 6-10 weeks of age were selected for the and on day-0, body weight of animals recorded and blood samples (approximately 80 μl to 90 μl) was collected via retro orbital route using isoflurane as inhalation anaesthesia, serum separated and serum triglyceride estimated and 24 animals were selected and grouped on the basis of serum triglyceride level as primary parameter as below
From hyphen or day-1 to Day-14, compounds were formulated in 5% PEG+5% Tween 80+90% (0.5%) Na-CMC in such, a way that the final volume of administration was 2 ml/kg of body wt, and animals were dosed orally once daily as per grouping details.
On day-14 blood samples were collected after 1 hour of dosing, serum separated and serum triglycerides (TG) was estimated. Animals were being kept on 24 hours fasting after completion of day-14 activities. On day-15, after 24 hours of fasting, body wt. of all animals was recorded. Then formulations of treatment items were prepared in vehicle and Triton WR-1339 prepared in 0.9% saline for intraperitoneal injection at dose of 250 mg/kg per 5 ml. Basal blood samples collected and animals were administered orally with respective treatment and immediately injected intraperitoneally with Triton WR-1339. Blood samples (approx, 1 ml per sample) were also collected at 6 hr, 24 hours and 48 hours after triton administration and serum triglycerides levels were estimated using Cobas C 311 clinical chemistry autoanalyser from Roche Diagnostics using commercial diagnostic kits.
% change at 6-hr, 24-hr and 48-hr for TG vs Vehicle Control was calculated using MS using MS Excel. The area under curve for TG, AUC-TG (0-48), was calculated using Graph Pad® software.

CCO[C@@H](Cc1ccc(OCCn2c(C)ccc2-c2ccc(SC)cc2)cc1)C(=O)O [Compound (1), Saroglitazar Magnesium]
plasma triglyceride (TG) in FTT (in words) (Zucker fa/fa rats [1]; 0 and 2 hour post corn oil treatment): significantly reduced plasma triglyceride (TG) | % Change in 13C Palmitate uptake in adipose tissue Vs Vehicle Control (Zucker fa/fa rats [1]; 0.4 mg/kg p.o.): 86% | Plasma TG in FTT (Zucker fa/fa rats [1]; 0.4 mg/kg p.o. 14 days, 0 min): 330.5 ± 39.2 mg/dL | Plasma TG in FTT (Zucker fa/fa rats [1]; 0.4 mg/kg p.o. 14 days, 120 min): 389.2 ± 21.8 mg/dL | 13C Palmitate (Zucker fa/fa rats [1]; 0.4 mg/kg p.o.): 6.20 ± 0.89 Nanomole/mg protein | Palmitate total (Zucker fa/fa rats [1]; 0.4 mg/kg p.o.): 7.14 ± 0.30 micromole/mg protein | % Change in 13C Palmitate uptake in adipose tissue Vs Vehicle Control (Zucker fa/fa rats [1]; 4 mg/kg p.o.): 247% | Plasma TG in FTT (Zucker fa/fa rats [1]; 4 mg/kg p.o. 14 days, 0 min): 84.7 ± 9.3 mg/dL | Plasma TG in FTT (Zucker fa/fa rats [1]; 4 mg/kg p.o. 14 days, 120 min): 171.3 ± 28.2 mg/dL | 13C Palmitate (Zucker fa/fa rats [1]; 4 mg/kg p.o.): 11.57 ± 0.73 Nanomole/mg protein | Palmitate total (Zucker fa/fa rats [1]; 4 mg/kg p.o.): 6.60 ± 0.29 micromole/mg protein | fasting and postprandial TG levels (in words) (Zucker fa/fa rats [1]; conclusion of the study): significantly reduces fasting and postprandial TG levels | increase in accumulation of M+16 palmitate in adipose tissue (Zucker fa/fa rats [1]; high dose (4 mg/kg)): 247% | appearance of M+16 TG species TG (52:3) and TG (52:4) in plasma (in words) (Zucker fa/fa rats [1]; low (0.4 mg/kg) and high (4 mg/kg) dose): significantly attenuated the appearance of M+16 TG | gastrocnemius M+16 palmitate labeling (in words) (Zucker fa/fa rats [1]; low and high dose (0.4 and 4 mg/kg)): decreased gastrocnemius M+16 palmitate labeling | increase in accumulation of M+16 palmitate in adipose tissue (Zucker fa/fa rats [1]; low dose (0.4 mg/kg)): 86% | reduction in AUC-TG Vs Vehicle control group (Zucker fa/fa rats [2]; 1 mg/kg): 48% | AUC-TG (0-48 hr.) (Zucker fa/fa rats [2]; 1 mg/kg p.o. once daily): 54241.5 ± 11182.3 mg·h/dL | Serum Triglycerides after Triton WR-1339 administration (Zucker fa/fa rats [2]; 1 mg/kg p.o. once daily, 0 hr): 188.3 ± 15.6 mg/dL | Serum Triglycerides after Triton WR-1339 administration (Zucker fa/fa rats [2]; 1 mg/kg p.o. once daily, 6 hr): 438.5 ± 52.7 mg/dL | Serum Triglycerides after Triton WR-1339 administration (Zucker fa/fa rats [2]; 1 mg/kg p.o. once daily, 24 hr): 1797.2 ± 331.3 mg/dL | Serum Triglycerides after Triton WR-1339 administration (Zucker fa/fa rats [2]; 1 mg/kg p.o. once daily, 48 hr): 889.5 ± 353.9 mg/dL | % Change in TG Vs Vehicle Control (Zucker fa/fa rats [2]; 1 mg/kg p.o., 0 hr after Triton WR-1339): −63.7 ± 3.0% | % Change in TG Vs Vehicle Control (Zucker fa/fa rats [2]; 1 mg/kg p.o., 6 hr after Triton WR-1339): −43.6 ± 6.8% | % Change in TG Vs Vehicle Control (Zucker fa/fa rats [2]; 1 mg/kg p.o., 24 hr after Triton WR-1339): −44.7 ± 10.2% | % Change in TG Vs Vehicle Control (Zucker fa/fa rats [2]; 1 mg/kg p.o., 48 hr after Triton WR-1339): −59.1 ± 16.3% | % Change in AUC-TG vs Vehicle Control (Zucker fa/fa rats [2]; 1 mg/kg p.o.): −48.4 ± 10.6% | reduction in serum triglycerides (TG) (Zucker fa/fa rats [2]; 1 mg/kg): 64% | reduction in AUC-TG Vs Vehicle control group (Zucker fa/fa rats [2]; 10 mg/kg): 63% | AUC-TG (0-48 hr.) (Zucker fa/fa rats [2]; 10 mg/kg p.o. once daily): 39050.3 ± 6922.7 mg·h/dL | Serum Triglycerides after Triton WR-1339 administration (Zucker fa/fa rats [2]; 10 mg/kg p.o. once daily, 0 hr): 93.2 ± 7.9 mg/dL | Serum Triglycerides after Triton WR-1339 administration (Zucker fa/fa rats [2]; 10 mg/kg p.o. once daily, 6 hr): 328.9 ± 111.9 mg/dL | Serum Triglycerides after Triton WR-1339 administration (Zucker fa/fa rats [2]; 10 mg/kg p.o. once daily, 24 hr): 1463.8 ± 265.3 mg/dL | Serum Triglycerides after Triton WR-1339 administration (Zucker fa/fa rats [2]; 10 mg/kg p.o. once daily, 48 hr): 340.4 ± 151.7 mg/dL | % Change in TG Vs Vehicle Control (Zucker fa/fa rats [2]; 10 mg/kg p.o., 0 hr after Triton WR-1339): −82.0 ± 1.5% | % Change in TG Vs Vehicle Control (Zucker fa/fa rats [2]; 10 mg/kg p.o., 6 hr after Triton WR-1339): −57.7 ± 14.4% | % Change in TG Vs Vehicle Control (Zucker fa/fa rats [2]; 10 mg/kg p.o., 48 hr after Triton WR-1339): −84.3 ± 7.0% | % Change in AUC-TG vs Vehicle Control (Zucker fa/fa rats [2]; 10 mg/kg p.o.): −62.9 ± 6.6% | reduction in serum triglycerides (TG) (Zucker fa/fa rats [2]; 10 mg/kg): 82% | lowering of TG levels (in words) (Zucker fa/fa rats [2]; 1 and 10 mg/kg, all time points after Triton WR-1339): dose dependent lowering of TG levels at all-time points | blunting an increase in serum triglycerides (in words) (Zucker fa/fa rats [2]; compared to fenofibrate): significantly effective in blunting an increase in serum triglycerides

CC(C)OC(=O)C(C)(C)Oc1ccc(C(=O)c2ccc(Cl)cc2)cc1 [Fenofibrate, reference compound]
% Change in 13C Palmitate uptake in adipose tissue Vs Vehicle Control (Zucker fa/fa rats [1]; 150 mg/kg p.o.): −14% | Plasma TG in FTT (Zucker fa/fa rats [1]; 150 mg/kg p.o. 14 days, 120 min): 502.2 ± 8.1 mg/dL | 13C Palmitate (Zucker fa/fa rats [1]; 150 mg/kg p.o.): 2.88 ± 0.57 Nanomole/mg protein | Palmitate total (Zucker fa/fa rats [1]; 150 mg/kg p.o.): 6.90 ± 0.24 micromole/mg protein | reduction in AUC-TG Vs Vehicle control group (Zucker fa/fa rats [2]; 65 mg/kg): 11% | AUC-TG (0-48 hr.) (Zucker fa/fa rats [2]; 65 mg/kg p.o. once daily): 93412.8 ± 12023.5 mg·h/dL | Serum Triglycerides after Triton WR-1339 administration (Zucker fa/fa rats [2]; 65 mg/kg p.o. once daily, 0 hr): 324.9 ± 45.3 mg/dL | Serum Triglycerides after Triton WR-1339 administration (Zucker fa/fa rats [2]; 65 mg/kg p.o. once daily, 6 hr): 1048.1 ± 147.4 mg/dL | Serum Triglycerides after Triton WR-1339 administration (Zucker fa/fa rats [2]; 65 mg/kg p.o. once daily, 24 hr): 2871.5 ± 357.4 mg/dL | Serum Triglycerides after Triton WR-1339 administration (Zucker fa/fa rats [2]; 65 mg/kg p.o. once daily, 48 hr): 1630.0 ± 329.8 mg/dL | % Change in TG Vs Vehicle Control (Zucker fa/fa rats [2]; 65 mg/kg p.o., 0 hr after Triton WR-1339): −37.4 ± 8.7% | % Change in TG Vs Vehicle Control (Zucker fa/fa rats [2]; 65 mg/kg p.o., 6 hr after Triton WR-1339): 34.9 ± 19.0% | % Change in TG Vs Vehicle Control (Zucker fa/fa rats [2]; 65 mg/kg p.o., 48 hr after Triton WR-1339): −25.0 ± 15.2%
